Among the data in PubChem BioAssay AID1259408 (Genetic Toxicology Data Bank (GENE-TOX), 2018) are mutagenic call and call values, retold here.

The data set relates to GENE-TOX genotoxicity assays, various organisms and cells. Description: GENE-TOX mutagenicity studies.
[1] abbreviates: Species/Cell Type: Bacillus subtilis (H17 vs M45), Assay Type: Rec-assay, spot test, DNA effects (bacterial DNA repair), Assay Code: REWT, Evaluation Type: Evaluation A (Pre-1980).
Where [2] appears, read: Species/Cell Type: Drosophila melanogaster, Assay Type: Sex-linked recessive lethal gene mutation, Assay Code: SRL-, Evaluation Type: Evaluation A (Pre-1980).
[3] abbreviates: Species/Cell Type: Escherichia coli polA (W3119 vs P3478), Assay Type: Rec-assay, DNA effects (bacterial DNA repair), Assay Code: RE1T, Evaluation Type: Evaluation A (Pre-1980).
Setting [4] is: Species/Cell Type: Hordeum vulgare (barley), Assay Type: Chromosome aberrations, Assay Code: HOC+D, Dose Response: With dose response, Evaluation Type: Evaluation A (Pre-1980).
The mark [5] stands for this setting: Species/Cell Type: Saccharomyces cerevisiae, Assay Type: Mitotic recombination or gene conversion, Assay Code: YEH-, Evaluation Type: Evaluation A (Pre-1980).
The mark [6] stands for this setting: Species/Cell Type: Salmonella typhimurium (one or more of the five standard strains: TA98, TA100, TA1535, TA1537, and TA1538), Assay Type: Histidine reverse gene mutation, Ames assay, Assay Code: SAL-, Evaluation Type: Evaluation A (Pre-1980).
Setting [7] is: Species/Cell Type: Salmonella typhimurium (one or more of the five standard strains: TA98, TA100, TA1535, TA1537, and TA1538), Assay Type: Histidine reverse gene mutation, Ames assay, Assay Code: SAL+, Evaluation Type: Evaluation A (Pre-1980).
Where [8] appears, read: Species/Cell Type: Salmonella typhimurium (one or more of the five standard strains: TA98, TA100, TA1535, TA1537, and TA1538), Assay Type: Histidine reverse gene mutation, Ames assay, Assay Code: SALT, Evaluation Type: Evaluation A (Pre-1980).
The mark [9] stands for this setting: Species/Cell Type: Drosophila melanogaster, Assay Type: Sex-linked recessive lethal gene mutation, Assay Code: SRLT, Evaluation Type: Evaluation A (Pre-1980).

The source made the active and inactive calls. How the calls were made is not given here.

Consider `CNC(=O)Oc1cccc2c1OC(C)(C)C2`, for which the mutagenic call is “no conclusion” under setting [1]; “inactive; negative” under setting [2]; “inactive; negative” (Species/Cell Type: Escherichia coli WP2 UVRA, Assay Type: Tryptophan reverse gene mutation, Assay Code: WPU-*, Activation: With metabolic activation, Evaluation Type: Evaluation A (Pre-1980)); “no conclusion” under setting [3]; “active; positive” under setting [4]; “inactive; negative” (Species/Cell Type: Human diploid fibroblasts, Assay Type: Unscheduled DNA synthesis (UDS) in vitro, DNA effects, Assay Code: UDH-, Evaluation Type: Evaluation A (Pre-1980)). Also, the mutagenic call is “inactive; negative” under setting [5] and “inactive; negative” under setting [6].
As for `C[C@@H]1O[C@@H](OC[C@H]2O[C@@H](Oc3c(-c4ccc(OCCO)c(OCCO)c4)oc4cc(OCCO)cc(O)c4c3=O)[C@H](O)[C@@H](O)[C@@H]2O)[C@H](O)[C@H](O)[C@H]1O`, the mutagenic call (Species/Cell Type: Mammalian polychromatic erythrocytes, Assay Type: Micronucleus test, chromosome aberrations, Assay Code: MNT-, Evaluation Type: Evaluation B (Post-1980)) is “inactive; negative”.
As for `CCOC(=O)CCCCC(=O)OCC`, the mutagenic call (Species/Cell Type: Rodents, Sex: Male, Assay Type: Dominant lethal test, Assay Code: DLT+, Evaluation Type: Evaluation A (Pre-1980)) is “active; positive”.
For the molecule `CCOC(=O)COc1ccc(Br)cc1CCl` (tested in a mixture with another compound), for the setting “Species/Cell Type: Saccharomyces cerevisiae, Assay Type: Reverse gene mutation, Assay Code: YERT, Evaluation Type: Evaluation A (Pre-1980)”, the mutagenic call is listed as “no conclusion”.
Turning to `COc1cc2c(c3oc(=O)c4c(c13)CCC4=O)[C@H]1[C@@H](O2)O[C@@H](Cl)[C@@H]1Cl`, the mutagenic call under setting [7] is “active; positive”.
In the case of `CNC(=O)Oc1ccccc1Cl`, the mutagenic call was “no conclusion” under setting [1]; “inactive; negative” (Species/Cell Type: Bacillus subtilis (H17 vs M45T), Assay Type: Rec-assay, spot test, DNA effects (bacterial DNA repair), Assay Code: REX-, Evaluation Type: Evaluation A (Pre-1980)); “inactive; negative” (Species/Cell Type: Escherichia coli WP2, Assay Type: Tryptophan reverse gene mutation, Assay Code: WP2-, Evaluation Type: Evaluation A (Pre-1980)).
Take `O=S1(=O)OC(c2cc(Br)c(O)c(Br)c2)(c2cc(Br)c(O)c(Br)c2)c2ccccc21`: the mutagenic call under setting [8] is given as “no conclusion”.
Consider `FC(F)F`, for which the mutagenic call under setting [9] is recorded as “no conclusion”.
For the molecule `O=Cc1ccccc1`, the mutagenic call (Species/Cell Type: Neurospora crassa, Assay Type: Reverse gene mutation, Assay Code: NER+, Evaluation Type: Evaluation A (Pre-1980)) is “active; positive”.
As to `COc1ccc(Cl)cc1C(=O)NCCc1ccc(S(=O)(=O)NC(=O)NC2CCCCC2)cc1`, the mutagenic call runs as follows: (Species/Cell Type: Mammalian polychromatic erythrocytes, Assay Type: Micronucleus test, chromosome aberrations, Assay Code: MNTT, Evaluation Type: Evaluation B (Post-1980)) “no conclusion”; (Species/Cell Type: Nonhuman, Assay Type: Sister-chromatid exchange (SCE) in vivo, Assay Code: SC3T, Evaluation Type: Evaluation B (Post-1980)) “no conclusion”.
Regarding `C/[N+]([O-])=N/CO[C@@H]1O[C@H](CO)[C@@H](O)[C@H](O)[C@H]1O`, the mutagenic call by setting is: under setting [9], “no conclusion”; under setting [6], “inactive; negative”; (Species/Cell Type: Salmonella typhimurium, Assay Type: Forward and reverse gene mutation, host-mediated assay, Assay Code: HMA+, Evaluation Type: Evaluation A (Pre-1980)) “active; positive”. Under “Species/Cell Type: Nonhuman, Assay Type: In vivo carcinogenicity studies, Assay Code: CCG+, Evaluation Type: Evaluation A (Pre-1980)”, the call is “active; positive”.
As for `Nc1ccc2nc[nH]c2c1`, the mutagenic call (Species/Cell Type: Aspergillus nidulans, Assay Type: Aneuploidy, chromosome aberrations, Assay Code: ASN-, Evaluation Type: Evaluation A (Pre-1980)) was “inactive; negative”.
On to `C=CC1=C(C)/C(=C/c2[nH]c(Cc3[nH]c(/C=C4\NC(=O)C(C)=C4C=C)c(C)c3CCC(=O)O)c(CCC(=O)O)c2C)NC1=O`, for which the mutagenic call (Species/Cell Type: Human lymphocytes, Assay Type: Sister-chromatid exchange (SCE) in vitro, Assay Code: SCL-, Evaluation Type: Evaluation A (Pre-1980)) was “inactive; negative” and the mutagenic call (Species/Cell Type: Human, Assay Type: Sister-chromatid exchange (SCE) in vitro, Assay Code: SC1-, Evaluation Type: Evaluation A (Pre-1980)) was “inactive; negative”.
`Nc1nc(-c2cccc3ccccc23)cs1`: under “Species/Cell Type: Salmonella typhimurium, Assay Type: Forward and reverse gene mutation, host-mediated assay, Assay Code: HMAT, Evaluation Type: Evaluation A (Pre-1980)”, the mutagenic call was “no conclusion”.
For the molecule `CCOP(=S)(OCC)SCCSCC`, the mutagenic call by setting is: under setting [1], “no conclusion”; under setting [2], “inactive; negative”; under setting [3], “no conclusion”; under setting [4], “active; positive”; (Species/Cell Type: Human diploid fibroblasts, Assay Type: Unscheduled DNA synthesis (UDS) in vitro, DNA effects, Assay Code: UDH+/-*, Activation: With metabolic activation, Evaluation Type: Evaluation A (Pre-1980)) “inactive; positive without activation, negative with activation”; (Species/Cell Type: Nonhuman, Assay Type: Sister-chromatid exchange (SCE) in vitro, Assay Code: SC2T, Evaluation Type: Evaluation B (Post-1980)) “no conclusion”. The mutagenic call runs as follows: under setting [5], “inactive; negative”; under setting [6], “inactive; negative”.
On to `O=Nc1ccc(NNc2ccccc2)cc1`, for which the mutagenic call under setting [7] is “active; positive”.
Turning to `C[CH2][Hg][S]c1ccc(OS(=O)O)cc1`, for the setting “Species/Cell Type: Saccharomyces cerevisiae, Assay Type: Aneuploidy, chromosome aberrations, Assay Code: YEN+, Evaluation Type: Evaluation A (Pre-1980)”, the mutagenic call is “active; positive”.
As for `O=C1CCCO1`, the mutagenic call by setting is: (Species/Cell Type: Mammalian polychromatic erythrocytes, Assay Type: Micronucleus test, chromosome aberrations, Assay Code: MNTT, Evaluation Type: Evaluation A (Pre-1980)) “no conclusion”; (Species/Cell Type: Mouse, Sex: Male, Assay Type: Sperm morphology, Assay Code: SPI-, Evaluation Type: Evaluation A (Pre-1980)) “inactive; negative”; (Species/Cell Type: Nonhuman, Assay Type: Sister-chromatid exchange (SCE) in vitro, Assay Code: SC2+, Evaluation Type: Evaluation B (Post-1980)) “active; positive”.
Take `c1cc2ccc3ccc(C4CO4)c4ccc(c1)c2c34` (centres undefined): under setting [7], the mutagenic call is “active; positive”.
Consider `CCC(COS(C)(=O)=O)(COS(C)(=O)=O)COS(C)(=O)=O`, for which the mutagenic call (Species/Cell Type: Arabidopsis species, Assay Type: Gene mutation, Assay Code: ARM+, Evaluation Type: Evaluation A (Pre-1980)) is “active; positive”.
Turning to `Cc1cc(N(C)CCCl)ccc1N=Nc1ccccc1C(=O)O`, under setting [9], the mutagenic call is “no conclusion”.
As to `CNc1ccc(O)cc1`, the mutagenic call is, setting by setting: (Species/Cell Type: Allium cepa, Assay Type: Chromosome aberrations, Assay Code: ALCT, Evaluation Type: Evaluation A (Pre-1980)) “no conclusion”; (Species/Cell Type: Neurospora crassa, Assay Type: Aneuploidy, chromosome aberrations, Assay Code: NEN-, Evaluation Type: Evaluation A (Pre-1980)) “inactive; negative”.
In the case of `CN[C@@H]1[C@H](O[C@H]2[C@H](O[C@H]3[C@H](O)[C@@H](O)[C@H](N=C(N)N)[C@@H](O)[C@@H]3N=C(N)N)O[C@@H](C)[C@]2(O)C=O)O[C@@H](CO)[C@H](O)[C@H]1O`, the mutagenic call is, setting by setting: (Species/Cell Type: Bacillus subtilis (H17 vs M45T), Assay Type: Rec-assay, spot test, DNA effects (bacterial DNA repair), Assay Code: REXT, Evaluation Type: Evaluation A (Pre-1980)) “no conclusion”; under setting [9], “no conclusion”; (Species/Cell Type: Escherichia coli polA (W3119 vs P3478), Assay Type: Rec-assay, DNA effects (bacterial DNA repair), Assay Code: RE1-, Evaluation Type: Evaluation A (Pre-1980)) “inactive; negative”; (Species/Cell Type: Vicia faba, Assay Type: Chromosome aberrations, Assay Code: VIC+, Evaluation Type: Evaluation A (Pre-1980)) “active; positive”.
As for `Nc1ccc2c(S(=O)(=O)O)cccc2c1S(=O)(=O)O`, under setting [8], the mutagenic call is recorded as “no conclusion”.
`COC(=O)Nc1cccc(OC(=O)Nc2cccc(C)c2)c1`: the mutagenic call runs as follows: (Species/Cell Type: Aspergillus nidulans, Assay Type: Aneuploidy, chromosome aberrations, Assay Code: ASN+, Evaluation Type: Evaluation A (Pre-1980)) “active; positive”; (Species/Cell Type: Saccharomyces cerevisiae, Assay Type: Mitotic recombination or gene conversion, Assay Code: YEC-, Evaluation Type: Evaluation A (Pre-1980)) “inactive; negative”.
With `CC(C)(C)I`, the mutagenic call (Species/Cell Type: Escherichia coli polA (W3119 vs P3478), Assay Type: Rec-assay, DNA effects (bacterial DNA repair), Assay Code: RE1+, Evaluation Type: Evaluation A (Pre-1980)) is “active; positive”.
